What was measured:
[1] = test system: platelet: HL-60 cell adhesion; experiment: HL-60 Platelet Cell Adhesion Assay; assay type: cell-based; conditions: 0.5 h; thrombin-activated human platelets: HL-60 5:1, 30 minutes at room temperature; read-out: P-selectin HL-60 Platelets IC50
Method: HL-60 cells, obtained from American Type Culture Collection, were cultured in RPMI 1640 medium (GIBCO) supplemented with 20% fetal calf serum (Sigma) and 50 μg/ml gentamicin (GIBCO). Cells in log phase growth were harvested, washed and resuspended in Tyrodes buffer containing 5 mM HEPES and 0.2% bovine serum albumin and were fixed with 1% buffered formalin.
Blood from normal human donors was anticoagulated with citrate, layered over 1-Step Platelets (Accurate Chemical Co.) and centrifuged at 350 g for 20 minutes at room temperature. The platelet band was collected, diluted in 2 volumes of Tyrode's Buffer with 5 mM HEPES, 10 mM EDTA, and 0.2% BSA (pH 7.4) (THEB) and centrifuged at 600 g for 10 minutes. The platelet pellet was resuspended in THEB and incubated at room temperature for 1 hour. Calcein-acetoxy methylester (Calcein-Am, Molecular Probes) was added to the platelets at a final concentration of 10 μM and incubated for 10 minutes at 37° C. to label the platelets. Without washing, the platelets were counted on a Coulter counter model ZM, and the concentration was adjusted to 1×10^7 /ml. The platelets were activated with 2 U/ml of human thrombin for 10 minutes in Tyrode's containing 2 mM CaCl2, 5 mM HEPES, and 0.2% BSA (pH 7.4) (THB) at 37° C. and immediately fixed with 1% buffered formalin for 1 to 2 hours at room temperature. A small aliquot of labeled platelets was removed before activation and designated as non-activated.
Both platelets and HL-60 were washed in a ≥25 fold excess volume of Hanks Balanced Salt Solution (HBSS), resuspended in THB and counted. Cell concentrations were adjusted to 2×10^7 /ml for platelets and 4×10^6 /ml for HL-60, this ratio determined to be optimum for platelet: HL-60 cell adhesion. Compounds were incubated with 50 μl of platelets for 30 minutes at room temperature before addition of 50 μl of HL-60. This ratio of 5:1 platelets to HL-60 was incubated for 30 minutes at room temperature before addition of 0.2 ml of THB to increase the volume so the samples could be analyzed on a FACScan cytometer (Becton Dickinson). Non-activated platelets, and activated platelets with 10 mM EDTA were included as controls. Data were collected within a region set for the forward scatter channel corresponding to HL-60 size events.
The percent HL-60 cells which contained bound platelets was determined for each test condition. The inhibition of binding was determined by comparison to standards which were treated with vehicle alone (representing 0% inhibition) and standards whose specific binding had been blocked by the use of EDTA (representing 100% inhibition), by the following formula: [formula] where x=HL-60 cells containing bound platelets in the presence of the compound;
b=HL-60 cells containing bound platelets in the presence of EDTA;
a=HL-60 cells containing bound platelets in the presence of compound vehicle;
z=% inhibition of platelet: HL-60 cell adhesion

rats = experiment: Reverse Passive Arthus Reaction in Rats (RPA); assay type: in vivo, male Sprague Dawley rats; set-up: key to RPA VP % Inhib. (vascular permeability): NS: no significant inhibition at 3 mg; conditions: single dose of 3 mg IV, rat, 4 hours after BSA
Description: The reverse passive Arthus reaction in rats is a modification of the method by Mulligan et al., as described in J. Clin. Invest, (1991) 88: 1396-1406. This is an experimental model in which the interaction of antigen-antibodycomplexes and complement leads to a severe vasculitis that is associated with edema, induration, erythema and hemorrhage. The interaction between the antigen-antibody complexes and complement leads to a localized influx of neutrophils. These neutrophils release a variety of mediators that are associated with tissue damage and vascular permeability. The localized inflammatory reaction is measured using different techniques i.e., vascular permeability and neutrophil influx which is evaluated both biochemically and microscopically.
Male Sprague Dawley specific pathogen-free rats with jugular vein cannulae (280-320 g, Hill Top Labs, Pennsylvania) are used in these studies. Animals are acclimated for at least 1 day and individually housed in stainless steel cages. The dorsal region of the rats is closely clipped 2 days prior to the experiments and divided into 4 sites on each side of the midline. Prior to all injections the rats are sedated with 0.4 ml per 300 gm rat of ketamine/rompun [1000 mg (10 ml) of ketamine HCl is mixed with 40 mg (2.0 ml) Rompun] administered IP and or inhalation anesthesia with metafane (methoxyflurane).
Bovin Serum Albumin (BSA) and rabbit polyclonal IgG rich in anti-BSA are purchased from Sigma Chemical Co. (St. Louis, Mo.). Radiolabelled ^125 I-BSA (spAct 1-5 μCi/μg) is purchased from Dupont NEN (Boston, Mass.).
Each rat is administered intradermal (ID) injection of (0.4 mg, 0.6 mg and 0.8 mg) anti-BSA in a volume of 100 μl per injection in normal saline. The ID injections are randomized near the mid dorsal region on both sides of the back bone. Immediately after the ID injections of the anti-BSA, the rats are administered intravenous (IV) injections of BSA (10 mg in 1.0 ml) in normal saline containing ^125 I labeled BSA (1 μCi/ml BSA or 5.0 μCi/kg body/wt) for quantification of dermal valscular injury. Anti-inflammatory agents such as inhibitors of adhesion molecules of the present invention are administered IV at a single dose of 3 mg immediately after BSA. Four (4) hours after the IV injection of BSA, the rats are anesthetized with metafane and 2 to 3 ml of blood is withdrawn via the cannula into an anticoagulant containing (EDTA or Heparin) tube and plasma separated and saved for neutrophil and albumin quantitation. The rats are killed and the skin surrounding the injection site (15 mm diameter) is punched out and weighed. The skin sample and a fixed volume of plasma (0.1 to 1.0 ml) is analyzed in a gamma-counter for ^125 I content. Skin samples from the contralateral side are processed and analyzed for myeloperoxidase activity (MPO) as a measure of neutrophil accumulation. As needed, samples are also processed for histological evaluation of the reacted sites.
The calculation of the plasma protein exudation into skin is made by determining the radioactivity in the tissue and relating this to the level of radioactive albumin in the blood at the time of sacrifice. […] [formula]
Percent inhibition of the test compound at 3 mg was determined as follows: [formula] Myeloperoxidase (MPO)
MPO is located in the azurophil granules of polymorphonuclear leukocytes (PMN). Because of its abundance in these cells (5% dry weight), this enzyme is used as a marker for tissue neutrophil content. For tissue MPO content, the method of Bradley, et al., was used as described in J. Invest. Dermatol. (1982) 78: 206-209. Biopsies from each treatment group were placed in plastic tubes (15×100 mm) containing 10 ml of 0.5% hexadecyltrimethylammonium bromide (HTAB) in 0.05M potassium phosphate buffer pH 6.0. The tissue was then homogenized with a Brinkmann Polytron homogenizer (10s). […]

P-selectin = molecular target: T1, P-selectin (Homo sapiens, UniProt P16109); conditions: literature; cited from earlier work
T1 sequence (P16109 42-830): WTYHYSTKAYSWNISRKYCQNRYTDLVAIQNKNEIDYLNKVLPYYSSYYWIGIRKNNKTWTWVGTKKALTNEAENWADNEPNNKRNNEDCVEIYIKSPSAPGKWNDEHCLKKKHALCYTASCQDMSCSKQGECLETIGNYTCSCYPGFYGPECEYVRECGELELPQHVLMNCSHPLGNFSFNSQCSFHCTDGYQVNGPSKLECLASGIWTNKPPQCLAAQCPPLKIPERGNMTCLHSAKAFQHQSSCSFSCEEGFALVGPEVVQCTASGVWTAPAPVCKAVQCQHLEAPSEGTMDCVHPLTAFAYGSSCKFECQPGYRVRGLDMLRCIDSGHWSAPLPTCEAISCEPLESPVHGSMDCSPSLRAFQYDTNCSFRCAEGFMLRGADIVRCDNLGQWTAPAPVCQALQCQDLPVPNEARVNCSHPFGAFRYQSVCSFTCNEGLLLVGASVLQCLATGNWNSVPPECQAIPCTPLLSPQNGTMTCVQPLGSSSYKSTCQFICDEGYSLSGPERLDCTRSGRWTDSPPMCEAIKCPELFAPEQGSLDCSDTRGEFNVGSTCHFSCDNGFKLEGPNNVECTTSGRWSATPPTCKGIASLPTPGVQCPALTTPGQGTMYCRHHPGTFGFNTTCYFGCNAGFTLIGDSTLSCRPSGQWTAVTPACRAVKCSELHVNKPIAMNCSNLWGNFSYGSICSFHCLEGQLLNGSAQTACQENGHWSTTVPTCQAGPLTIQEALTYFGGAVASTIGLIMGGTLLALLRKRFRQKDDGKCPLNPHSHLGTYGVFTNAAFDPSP

| Molecule | IC50 [1] | RPA MPO % Inhib. (myeloperoxidase) (rats) | RPA VP % Inhib. (vascular permeability) (rats; printed as symbol) | inhibition of P-selectin mediated adhesion (P-selectin) | RPA VP % Inhib. (vascular permeability) (rats) |
| --- | --- | --- | --- | --- | --- |
| CCCCCCCCCCCCC/C=C/[C@@H](OC(=O)c1ccccc1)[C@H](CO[C@H]1O[C@H](COCCC(C(=O)O)C(=O)O)[C@H](O)[C@H](O)[C@H]1O)NC(=O)CCCCCCCCCCCCCCC [Example 6, (2S,3R,4E)-3-Benzoyloxy-2-hexadecanoylamino-1-[6-O-(3,3-di-carboxyprop-1-yl)-α-D-galactopyranosyloxy]-4-octadecene] | 13 µM | 25% | NS | – | – |
| heparin | – | – | – | inhibit P-selectin mediated adhesion | – |
| fucoidan | – | – | – | inhibit P-selectin mediated adhesion | – |
| dextran sulfate | – | – | – | inhibit P-selectin mediated adhesion | – |

Now from value to molecule, other results behind:

| IC50 [1] | Molecule | RPA MPO % Inhib. (myeloperoxidase) (rats) | RPA VP % Inhib. (vascular permeability) (rats; printed as symbol) | inhibition of P-selectin mediated adhesion (P-selectin) | RPA VP % Inhib. (vascular permeability) (rats) |
| --- | --- | --- | --- | --- | --- |
| 51 µM | CCCCCCCCCCCCC/C=C/[C@@H](OC(=O)c1ccccc1)[C@H](CO[C@H]1O[C@H](CO)[C@H](OCCC(C(=O)O)C(=O)O)[C@H](O)[C@H]1O)NC(=O)CCCCCCCCCCCCCCC [Example 24, (2S,3R,4E)-3-Benzoyloxy-2-hexadecanoylamino-1-[4-O-(3,3-di-carboxyprop-1-yl)-α-D-galactopyranosyloxy]-4-octadecene] | 35% | – | – | 33.5% |
| 22.9 µM | CCCCCCCCCCCCC/C=C/[C@@H](OC(=O)c1ccccc1)[C@H](CO[C@H]1O[C@H](CO)[C@H](O)[C@H](OCCCCC(C(=O)O)C(=O)O)[C@H]1O)NC(=O)CCCCCCCCCCCCCCC [Example 12, (2S,3R,4E)-3-Benzoyloxy-2-hexadecanoylamino-1-[3-O-(5,5-di-carboxypent-1-yl)-α-D-galactopyranosyloxy]-4-octadecene] | 82% | – | – | 33% |
| 8.8 µM | CCCCCCCCCCCCC/C=C/[C@@H](OC(=O)c1ccccc1)[C@H](CO[C@@H]1O[C@H](CO)[C@H](O)[C@H](OC(=O)c2ccccc2)[C@H]1OCCCCC(C(=O)O)C(=O)O)NC(=O)CCCCCCCCCCCCCCC [Example 18, (2S,3R,4E)-3-Benzoyloxy-2-hexadecanoylamino-1-[2-O-(5,5-di-carboxypent-1-yl)-3-O-benzoyl-β-D-galactopyranosyloxy]-4-octadecene] | 61.6% | – | – | 4.3% |
| 45 µM | CCCCCCCCCCCCC/C=C/[C@@H](OC(=O)c1ccccc1)[C@H](CO[C@@H]1O[C@H](CO)[C@H](O)[C@H](OCCCCC(C(=O)O)C(=O)O)[C@H]1O)NC(=O)CCCCCCCCCCCCCCC [Example 14, (2S,3R,4E)-3-Benzoyloxy-2-hexadecanoylamino-1-[3-O-(5,5-di-carboxypent-1-yl)-β-D-galactopyranosyloxy]-4-octadecene] | 30.9% | – | – | 15.5% |

Reference: patent publication US5747463A, “Malonate derivatives of glycolipids as cell adhesion inhibitors” (Bristol-Myers Squibb Company, priority 1996, dated 1998)
